For test [1], the system named is MMR-His6. The test can be described thus: Steady-state kinetics, ketoreductase activity by NADPH oxidation monitoring. It is filed as biochemical, Mentha piperita. The conditions noted are these: NADPH oxidation at 340 nm, 25° C., monoterpenoid 1 mM. The protocol: (§1) The concentration of nicotinamide coenzymes (Melford) was determined by the extinction coefficient method (ε340=[…]). Steady-state kinetic analyses were performed on a Cary UV-50 Bio UV/Vis scanning spectrophotometer using a quartz cuvette (1 mL; HelIma) with a 1 cm path length. Standard reactions (1 mL) were performed in buffer (50 mM Tris pH 7.0) containing NADPH (50-100 μM for MMR/MNMR and NtDBR, respectively), monoterpenoid (1 mM) and enzyme (30 nM to 2 μM). Reactions were followed by continuously monitoring NADPH oxidation at 340 nm for 1 min at 25° C. The standard monoterpenoid substrates used were pulegone for NtDBR (alkene reduction) and menthone/isomenthone for both MMR and MNMR (ketoreduction). Ketoreductase reactions were performed in an alternative buffer (12.5 mM tri-sodium citrate, 12.5 mM KH2PO4, 12.5 mM K2HPO4and 12.5 mM CHES) containing dithiothreitol (1 mM; DTT). All steady state reactions were performed in at least duplicate.
(§2) The cloning strategies enable the rapid generation and manipulation of multi-gene expression constructs from individual ‘components’, including the presence of repeated sequences of relatively high GC content. Initially, the three ‘mint’ pathway recombinant enzymes (NtDBR, MMR and MNMR) were purified, and preliminary biocatalytic ability of each was assessed to test their functionality when produced in a bacterial system. The three genes encoding these plant enzymes were first codon-optimised for E. coli and cloned into pET21b to generate C-His6-tagged recombinant enzymes. After production and purification, each enzyme was tested for activity under steady state conditions, via indirect NADPH oxidation monitoring.

Test [2] relates to His6-MNMR-His6. The test is described as above. The conditions noted are these: NADPH oxidation at 340 nm, 25° C., monoterpenoid 1 mM. It counts as biochemical, Mentha piperita. The protocol: as §1, §2
Test [3] concerns MMR. The conditions noted are these: Davis et al. 2005; cited from earlier work.
Test [4] addresses T1, NtDBR-His6 (Nicotiana tabacum, UniProt Q9SLN8).
T1 construct: made in house; host or cells: E. coli BL21(DE3)pLysS
The test is described as follows: Steady-state kinetics, ene-reductase activity by NADPH oxidation monitoring. It is filed as biochemical. The conditions noted are these: NADPH oxidation at 340 nm, 25° C., monoterpenoid 1 mM, 50 mM Tris pH 7.0. The protocol: as §1
The cloning strategies enable the rapid generation and manipulation of multi-gene expression constructs from individual ‘components’, including the presence of repeated sequences of relatively high GC content. Initially, the three ‘mint’ pathway recombinant enzymes (NtDBR, MMR and MNMR) were purified, and preliminary biocatalytic ability of each was assessed to test their functionality when produced in a bacterial system. […]

Structures are written as SMILES.

T1 sequence (Q9SLN8 whole entry): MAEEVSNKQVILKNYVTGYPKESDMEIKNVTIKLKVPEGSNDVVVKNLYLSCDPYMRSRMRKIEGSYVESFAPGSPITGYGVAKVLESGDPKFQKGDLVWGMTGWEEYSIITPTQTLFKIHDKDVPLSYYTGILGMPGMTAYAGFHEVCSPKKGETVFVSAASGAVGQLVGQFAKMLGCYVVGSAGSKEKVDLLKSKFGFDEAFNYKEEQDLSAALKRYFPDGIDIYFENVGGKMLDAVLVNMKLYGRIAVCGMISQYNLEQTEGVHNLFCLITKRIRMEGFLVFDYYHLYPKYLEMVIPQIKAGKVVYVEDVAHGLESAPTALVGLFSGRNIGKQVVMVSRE

For `CC(C)[C@H]1CC[C@@H](C)CC1=O` [(2R,5R)-isomenthone], the Ketoreductase activity in test [1] was 2.00 s⁻¹; in test [2], 0.20 s⁻¹.

In the case of `CC(C)[C@@H]1CC[C@@H](C)CC1=O` [(2S,5R)-menthone, (2S,5R)-trans-2-Isopropyl-5-methylcyclohexanone], the “specificity for menthone over isomenthone” value in test [3] is recorded as 10 fold. The Ketoreductase activity in test [1] was found to be 1.63 s⁻¹; in test [2], 0.96 s⁻¹.

Turning to `CC(C)=C1CC[C@@H](C)CC1=O` [(5R)-pulegone], in test [4], the ene-reductase activity was under 0.1 s⁻¹.

These data come from patent US20160289702A1, “Biosynthetic Mint” (The University of Manchester, priority 2015, published 2016).
